# From US12371400B2, “Cathepsin inhibitors” (ACADEMISCH ZIEKENHUIS LEIDEN (H.O.D.N. LUMC), priority 2017, dated 2025)
# Entries after “also recorded” stand apart in the source; their conditions may differ. Read-outs that look alike come from different tables or passages of the source.
# What was measured:
# hCatK [1] = molecular target: T1, hCatK (Homo sapiens, UniProt P43235); assay: In vitro inhibition of purified human Cathepsin K (fluorogenic substrate Z-FR-AMC); assay type: biochemical; settings: for IC50: purified human Cathepsin, 30 min incubation with inhibitor, mean ± SD, triplicate
# T1 sequence (P43235 115-329): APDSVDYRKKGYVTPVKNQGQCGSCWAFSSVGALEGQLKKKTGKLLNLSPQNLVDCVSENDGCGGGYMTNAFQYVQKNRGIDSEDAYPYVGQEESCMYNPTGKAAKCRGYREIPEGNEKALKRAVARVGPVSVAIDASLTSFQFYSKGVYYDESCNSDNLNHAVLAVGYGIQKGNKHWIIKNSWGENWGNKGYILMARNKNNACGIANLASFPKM
# Method: (§1) Cathepsin (e.g. Cathepsin K/L/V/S/B), in particular purified human Cathepsin, was diluted in freshly prepared reaction buffer consisting of 50 mM MES pH 5.5, 25 mM EDTA and 2.5 mM DTT. 0.05% Tween20 (v/v) may be added to the reaction buffer of the Cathepsin K.
# (§2) Activity assays may be conducted in a suitable manner. In the experiments described herein, the assays were typically conducted in Corning 3820 Low Volume 384 Well Assay Plate with a final assay volume of 20 μL. Plates were shaken at 600 rpm for 1 minute and centrifuged at 1000 rpm for 1 minute prior to incubation. Cathepsin activity was quantified using synthetic fluorogenic peptide substrate Z-FR-AMC (Cath K, L, V), Z-RR-AMC (Cath B) or Z-FVR-AMC (Cath S). Fluorescence intensity (λex=350 nm, λem=440 nm) was measured every 2 minutes in arbitrary units (A.U.) on a CLARIOstar (BMG Labtech) microplate reader and values were converted to product formation [AMC]. […] Measurements were performed in triplicate.
# (§3) Inhibitors (200 nL, 100× final concentration in DMSO) were diluted in reaction buffer (10 μL). Purified human Cathepsin (5 μL, 4× final concentration) was added and the reaction mixture was incubated for 30 min at room temperature. Fluorogenic substrate (5 μL, 4× final concentration) was added and fluorescence intensity was measured every 2 minutes for 30-90 minutes.
# (§4) The potency of the compounds as CatK inhibitors was assessed in an in vitro inhibition assay on purified human CatK (Table 2). Cathepsin was incubated with inhibitor, and the hydrolysis of substrate was initiated by addition of substrate.
# hCatL = hCatL (Homo sapiens, UniProt P07711); assay: In vitro inhibition of purified human Cathepsin L (Z-FR-AMC); assay type: biochemical; settings: 30 min incubation with inhibitor, mean ± SD, triplicate
# Sequence of hCatL (P07711 114-333): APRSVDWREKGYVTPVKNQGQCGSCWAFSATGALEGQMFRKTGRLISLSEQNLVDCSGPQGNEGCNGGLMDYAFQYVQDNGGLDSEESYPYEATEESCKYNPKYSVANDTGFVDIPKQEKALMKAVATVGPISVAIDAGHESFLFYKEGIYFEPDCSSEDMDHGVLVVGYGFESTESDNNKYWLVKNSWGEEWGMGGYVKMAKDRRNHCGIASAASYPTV
# Method: as §1
# as §2, with “In the experiments described herein, the assays were typically conducted in Corning 3820 Low Volume 384 Well Assay Plate with a final assay volume of 20 μL.” left out
# as §3, §4
# hCatS = hCatS (Homo sapiens, UniProt P25774); assay: In vitro inhibition of purified human Cathepsin S (Z-FVR-AMC); assay type: biochemical; settings: 30 min incubation with inhibitor, mean ± SD, triplicate
# Sequence of hCatS (P25774 115-331): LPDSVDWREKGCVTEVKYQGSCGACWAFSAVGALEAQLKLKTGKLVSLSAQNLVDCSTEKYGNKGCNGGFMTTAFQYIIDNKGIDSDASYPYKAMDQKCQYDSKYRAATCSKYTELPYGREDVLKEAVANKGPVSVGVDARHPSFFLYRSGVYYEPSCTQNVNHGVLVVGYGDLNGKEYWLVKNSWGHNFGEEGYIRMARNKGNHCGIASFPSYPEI
# Method: as §1, §2, §3, §4
# hCatV = hCatV (Homo sapiens, UniProt O60911); assay: In vitro inhibition of purified human Cathepsin V (Z-FR-AMC); assay type: biochemical; settings: 30 min incubation with inhibitor, mean ± SD, triplicate
# Sequence of hCatV (O60911 114-334): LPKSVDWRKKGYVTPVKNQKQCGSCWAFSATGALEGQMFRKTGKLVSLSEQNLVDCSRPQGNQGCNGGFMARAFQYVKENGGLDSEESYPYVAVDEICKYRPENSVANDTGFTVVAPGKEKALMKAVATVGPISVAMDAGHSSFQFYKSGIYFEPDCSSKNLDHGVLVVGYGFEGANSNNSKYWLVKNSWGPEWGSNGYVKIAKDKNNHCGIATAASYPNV
# Method: as §1
# as §2, with “In the experiments described herein, the assays were typically conducted in Corning 3820 Low Volume 384 Well Assay Plate with a final assay volume of 20 μL.” left out
# as §3, §4
# hCatB = hCatB (Homo sapiens, UniProt P07858); assay: In vitro inhibition of purified human Cathepsin B (Z-RR-AMC); assay type: biochemical; settings: 30 min incubation with inhibitor, mean ± SD, triplicate
# Method: as §1
# as §2, with “In the experiments described herein, the assays were typically conducted in Corning 3820 Low Volume 384 Well Assay Plate with a final assay volume of 20 μL.” left out
# as §3, §4
# hCatK [2] = molecular target: T1, hCatK; assay: Jump dilution assay for reversibility of hCatK inhibition; assay type: biochemical; settings: 300× dilution into fluorogenic substrate solution
# Method: FIG. 3 provides a schematic overview of a jump dilution assay. A) Dose response curve for a 300-fold dilution of inhibitor concentration from full inhibition to full activity. B) Protocol and concentrations for incubation and dilution. C) Progress curves for hCatK proteolytic activity with inhibitor compounds ODN, 4, 5, 6 after dilution.
# Reversibility of protease inhibition by an inhibitor may be assessed in a jump dilution assay. An exemplary jump dilution assay is provided in R. A. Copeland, A. Basavapathruni, M. Moyer, M. P. Scott, Anal. Biochem. 2011, 416, 206. In a jump dilution assay the protease (e.g. CatK) is incubated with inhibitor at high concentration to allow full active site occupation, and subsequently diluted, e.g. 300×, into fluorogenic substrate solution resulting in an inhibitor concentration corresponding with full protease activity. The hydrolysis of fluorogenic substrate is monitored over an extended time period, e.g. at least 60 minutes. […] The assay results may be compared with the results using a known irreversible inhibitor of the protease as a control. E-64 represents an established pan-Cathepsin irreversible inhibitor, suitable for use as a positive control with most cysteine protease Cathepsins.
# Reversibility of hCatK inhibition was assessed in a jump dilution assay. Established pan-Cathepsin inhibitor E-64 was taken along as a control for irreversible inhibition. Purified hCatK was incubated with inhibitors at high concentration to allow full active site occupation, and subsequently diluted 300× into fluorogenic substrate solution resulting in an inhibitor concentration corresponding with full activity (FIG. 3).
# hCatK [3] = molecular target: T1, hCatK; assay: Kinetic evaluation of covalent inhibitors on purified hCatK; assay type: biochemical; settings: 100 pM hCatK, 4 μM Z-FR-AMC, 26° C., reaction started by addition of CatK; for Ki: read-out: Kl
# Method: The reaction kinetics of irreversible covalent inhibitor compounds may be assed in the following manner. Inhibitors (200 nL, 100× final concentration in DMSO) were diluted in reaction buffer (10 μL). Fluorogenic substrate (5 μL, 4× final concentration) was added and the reaction was started by addition of Cathepsin (5 μL, 4× final concentration). Fluorescence intensity was measured every 2 minutes for 60 minutes and fitted to equation I to obtain the Kobs. The obtained values were plotted against the inhibitor concentration and fitted to equation II to obtain kinetic parameters Kinact (rate of covalent bond formation) and Ki.
# Kinetic evaluation of irreversible covalent inhibitors was conducted by following the progress curve of inhibition when the hydrolysis of substrate is started by addition of the enzyme (instead of incubating the protease with the inhibitor prior to addition of the substrate). From this curve the maximum rate of covalent bond formation (Kinact) could be determined (Table 4).
# Cathepsin K = molecular target: T2, Cathepsin K (Homo sapiens, UniProt P43235); assay: LC-MS of intact CatK and CatK-inhibitor complexes; assay type: binding
# T2 sequence (P43235 115-329): T1 sequence (P43235 115-329)
# Method: The masses were determined from deconvoluted electrospray ionization mass spectra of CatK complexes. FIG. 4A to FIG. 4E each provide the result for a sample. In each of these FIGS. 4A to 4E the first panel provides the UPLC chromatogram, the second panel provides the electrospray ionization mass spectrum, and the third panel provides the corresponding deconvoluted electrospray ionization mass spectrum (average isotopes) with an indication of the measured mass of the predominant species. FIG. 4A provides the results obtained for intact CatK. FIG. 4B provides the results obtained for CatK.
# Cathepsin K (3 μM) in reaction buffer ([…]) was incubated with inhibitor (100 μM) at 37° C. for 6 hours prior to analysis. 1 μL injections of the sample were made onto a XEVO-G2XSQTOF#YEA928 UPLC-MS system with a Waters Acquity CM detector. Chromatographic separation was carried out on a ACQUITY UPLC® Protein BEH C4 Column over a 12 minute gradient elution of 2% to 100% acetonitrile in water (0.1% formic acid) at a flow rate of 0.500 mL/min. For the first 4 minutes the flow was diverted to the waste to avoid contamination of the MS with high concentrations of buffer components. After 4 minutes, the elution flow was ionized with an ESI ionization source and measured on a XEVO-G2XSQTOF. The results were analyzed using MassLynx V4.1. The total mass of the complex was obtained by deconvolution of electrospray ionization mass spectrum envelope (average isotopes) with the MaxEnt1 function.
# Cathepsin K was incubated with ODN, 4, 5 or 6 for 6 h to allow full covalent bond formation and submitted for measurement without any digestion steps, according to the method for LC-MS for intact CatK and CatK-inhibitor complexes described in the assays section above.
SMILES,IC50 (hCatK [1]) [nM],IC50 (hCatL) [nM],IC50 (hCatS) [nM],IC50 (hCatV) [nM],IC50 (hCatB) [nM],"selectivity for CatK over structurally related human Cathepsins (hCatK [1]; in words, from Table 2)",reversibility of hCatK inhibition (hCatK [2]),kinact/Kl (hCatK [3]) [M⁻¹ s⁻¹],Ki (hCatK [3]) [nM],kinact (hCatK [3]; read-out: kinact (converted)) [s⁻¹],"formation of covalent CatK-inhibitor complex (Cathepsin K; 6 h incubation, intact protein LC-MS)","Measured mass complex (Cathepsin K; CatK 3 μM, inhibitor 100 μM, 37° C., 6 h, deconvoluted ESI mass)",kinact (hCatK [3]) [s⁻¹]
"C#CC1(NC(=O)[C@H](CC(C)(C)F)N[C@@H](c2ccc(-c3ccc(S(C)(=O)=O)cc3)cc2)C(F)(F)F)CC1 [Compound 3, (S)—N-(1-ethynylcyclopropyl)-4-fluoro-4-methyl-2-(((S)-2,2,2-trifluoro-1-(4′-(methylsulfonyl)-[1,1′-biphenyl]-4-yl)ethyl)amino)pentanamide]",26200 ± 2240,> 100000,> 100000,> 100000,> 100000,,,,,,,,
"CC(C)(F)C[C@H](N[C@@H](c1ccc(-c2ccc(S(C)(=O)=O)cc2)cc1)C(F)(F)F)C(=O)NCC#CBr [Compound 6, (S)—N-(3-bromoprop-2-yn-1-yl)-4-fluoro-4-methyl-2-(((S)-2,2,2-trifluoro-1-(4′-(methylsulfonyl)-[1,1′-biphenyl]-4-yl)ethyl)amino)pentanamide]",46.9 ± 1.81,102 ± 5.14,55.4 ± 2.94,16.2 ± 0.883,98.6 ± 5.88,all selectivity is lost,irreversible,1650,193,0.000317,formation of a covalent hCatK—inhibitor complex; also recorded: covalent complex formed,24296,
"CC(C)C[C@H](NC(=O)[C@H]1O[C@@H]1C(=O)O)C(=O)NCCCCN=C(N)N [Compound E-64, reference compound]",1.9 ± 0.032,3.5 ± 0.22,,,,,,117000,11.4,,,,0.00135
"CC(C)(F)C[C@H](N[C@@H](c1ccc(-c2ccc(S(C)(=O)=O)cc2)cc1)C(F)(F)F)C(=O)NCC#N [Compound 2, (S)—N-(cyanomethyl)-4-fluoro-4-methyl-2-(((S)-2,2,2-trifluoro-1-(4′-(methylsulfonyl)-[1,1′-biphenyl]-4-yl)ethyl)amino)pentanamide, reference compound]",0.57 ± 0.009,,17.8 ± 0.303,909 ± 105,,,,,,,,,
